Patent US5219741A, “Method of making L-proline using an N-acyl-L-protine acylase” (priority 1990, dated 1993)
Entries after “also recorded” stand apart in the source; their conditions may differ. Like-named read-outs stand apart in the source and are kept apart here.

What was measured:
N-acyl-L-proline acylase [1] = assay: Substrate specificity: hydrolysis of N-acyl amino acids and proline derivatives; type: biochemical, Comamonas testosteroni DSM 5416
N-acyl-L-proline acylase [2] = assay: Stereospecificity of hydrolysis of N-acetyl-D,L-proline; type: biochemical, Comamonas testosteroni DSM 5416
Protocol: The hydrolysis of N-acyl-L-proline, N-acetyl-D,L-proline and N-acetyl-D-proline was determined in the following reaction mixture:
The reaction mixture was incubated for two hours at 30° C. and the L-proline produced was determined by amino acid analysis as in Example 10.

N-acyl-L-proline acylase [3] = assay: Dependence of the acylase activity on the substrate concentration (KM); type: biochemical, Comamonas testosteroni DSM 5416; details: 30° C., 0.1M tris-HCl buffer, pH 7.0
Protocol: The reaction temperature was 30° C. and the incubation time 10 minutes. The N-acetyl-L-proline concentration of the reaction batch was varied in a range from 1 to 50 mM.

[4] = test system: Comamonas testosteroni DSM 5416; assay: Growth of the strain in culture medium (OD600); type: cell-based
Protocol: Strains which appeared uniform according to the colony morphology and the microscopic image were then cultivated in 100 ml liquid medium (500 ml Erlenmeyer flask with top and 4 lateral baffles) at 30° C. on a rotary agitator machine at 200 rpms. The culture medium had the following composition: […]
(§1) The carbon source of the culture medium with a concentration of 4 g/l was varied and the influence on growth and acylase formation determined.
(§2) The concentration of N-acetyl-L-proline was varied in a range of 1 g/l-5 g/l in steps of 1 g/l in the culture medium as described in Example 1.
(§3) The concentration of (NH4)2 SO4 was varied in a range of 1 g/l-5 g/l in steps of 1 g/l in the culture medium as described in Example 1.
(§4) The concentration of yeast extract was varied in a range of 1 g/l-5 g/l in steps of 1 g/l in the culture medium as described in Example 1.
(§5) The N-acetyl-L-proline concentration was reduced to 0.2 to 1.0 g/l in the culture medium as described in Example 1 and 4 g/l Na acetate were additionally added.
(§6) The method described above under f) was followed. However, the inductor, N-acetyl-L-proline, was not added to the nutrient medium until the late exponential growth phase after an incubation time of 12 hours.
(§7) The method described above under f) was followed. In addition to N-acetyl-L-proline, various N-acetyl- and N-chloroacetyl amino acids were added to the nutrient medium in a concentration of 1 g/l.

[5] = test system: N-acyl-L-proline acylase formation in Comamonas testosteroni DSM 5416; assay: Acylase formation: specific activity of N-acyl-L-proline acylase in crude extract; type: cell-based
Protocol: After 24 to 48 hours, the cell-containing nutrient medium was centrifuged (15 min., 4,500 g in a cooling centrifuge), the cells were washed twice with 0.9% (w/v) NaCl solution and resuspended in 10 ml 0.1M tris-HCl buffer, pH 7.0.
The microorganisms of this suspension were macerated by ultrasound treatment (Sonifier-Cell Disrupter B-30 of the firm Branson Sonic Power Co., Danbury, Conn., USA) (2 minutes pulsating, corresponding to 1 minute of pure ultrasonic radiation. The cell fragments and non-macerated cells were centrifuged in a cooled centrifuge 30 minutes at 40,000 g and 5° C. The clear supernatant (=crude extract) was used in an enzyme test.
The reaction was started by adding crude extract and the reaction batches customarily incubated for 10 minutes at 30° C. The incubation time and the amount of crude extract were selected so that the linearity range of the enzymatic reaction and of the subsequent proline detection were not exceeded.
The enzymatic reaction was interrupted by pipetting 50 μl of the enzyme sample into 1.25 ml 100% acetic acid. Subsequently, 0.45 ml 0.1M tris-HCl buffer pH 7.0 and 1.25 ml ninhydrin reagent (3 g ninhydrin dissolved by heating in a mixture of 60 ml 100% acetic acid and 40 ml 6M phosphoric acid) were added. The ninhydrin reagent was freshly prepared daily. The test tubes were loosely closed with screw-on caps, incubated 30 minutes at 100° C. and subsequently cooled down in an ice bath.
The L-proline, liberated by the enzymatic hydrolysis, forms a red dye with ninhydrin at 100° C. The absorption of the red dye was measured in a spectrophotometer at 480 nm relative to a control batch without crude extract (=substrate blank). The concentration of the L-proline produced was determined using a straight calibration line with L-proline in a range of 5 to 100 nmoles per 50 μl specimen. The enzyme activity was indicated in international units; thus, one unit (U) corresponded to an amount of 1 μmole L-proline produced per minute.
The protein determination was carried out with a protein-determination kit of the firm Pierce Chemical Co., Rockford, Ill., USA, according to Bradford, Anal. Biochem. 72, pp. 248-254 (1976).
as §1, §2, §3, §4, §5, §6, §7

[6] = N-acetyl-L-proline 0.2 g/l + 4 g/l Na acetate, 34 hours
[7] = N-acetyl-L-proline 0.2 g/l added after 12 hours (late exponential growth phase), Na acetate medium, 24 hours further
[8] = N-acetyl-L-proline 0.4 g/l + 4 g/l Na acetate, 34 hours
[9] = N-acetyl-L-proline 0.4 g/l added after 12 hours (late exponential growth phase), Na acetate medium, 24 hours further
[10] = N-acetyl-L-proline 0.6 g/l + 4 g/l Na acetate, 34 hours
[11] = N-acetyl-L-proline 0.6 g/l added after 12 hours (late exponential growth phase), Na acetate medium, 24 hours further
[12] = N-acetyl-L-proline 0.8 g/l + 4 g/l Na acetate, 34 hours
[13] = N-acetyl-L-proline 0.8 g/l added after 12 hours (late exponential growth phase), Na acetate medium, 24 hours further
[14] = N-acetyl-L-proline 1.0 g/l + 4 g/l Na acetate, 34 hours
[15] = N-acetyl-L-proline 1.0 g/l added after 12 hours (late exponential growth phase), Na acetate medium, 24 hours further
[16] = N-acetyl-L-proline 1 g/l in culture medium, 24 hours
[17] = N-acetyl-L-proline 2 g/l in culture medium, 24 hours
[18] = N-acetyl-L-proline 3 g/l in culture medium, 24 hours
[19] = N-acetyl-L-proline 4 g/l in culture medium, 24 hours
[20] = N-acetyl-L-proline 5 g/l in culture medium, 24 hours
[21] = carbon source 4 g/l in culture medium
[22] = inductor 1 g/l + 4 g/l Na acetate, 24 hours

CC(=O)N1CCC[C@H]1C(=O)O [N-acetyl-L-proline]
Hydrolysis by the acylase (in words) (N-acyl-L-proline acylase [1]): hydrolyzed especially well
Rel. activity (%) (N-acyl-L-proline acylase [1]; 20 mM substrate 1.0 ml in 2.0 ml batch, 30° C., pH 7.0, N-acetyl-L-proline = 100%, amino-acid analyzer): 100%
Hydrolysis by the acylase (in words) (N-acyl-L-proline acylase [1]; listed as N-acetyl-L proline): hydrolyzes
Relative Activity (%) (N-acyl-L-proline acylase [1]; proline derivatives, 30° C., pH 7.0, N-acetyl-L-proline = 100%): 100%
Stereospecific hydrolysis (in words) (N-acyl-L-proline acylase [2]): hydrolyzes
L-proline (mmol/l) produced (N-acyl-L-proline acylase [2]; substrate 10 mmol/l, two hours at 30° C., pH 7.0): 10.25 mmol/L
Km (N-acyl-L-proline acylase [3]): 5 mM
Growth (OD600) [4, 6]: 2.27 OD600
Growth (OD600) [4, 7]: 2.22 OD600
Growth (OD600) [4, 8]: 2.90 OD600
Growth (OD600) [4, 9]: 2.28 OD600
Growth (OD600) [4, 10]: 2.75 OD600
Growth (OD600) [4, 11]: 2.76 OD600
Growth (OD600) [4, 12]: 3.04 OD600
Growth (OD600) [4, 13]: 2.95 OD600
Growth (OD600) [4, 14]: 3.12 OD600
Growth (OD600) [4, 15]: 2.88 OD600
Growth (OD600) [4, 16]: 1.95 OD600
Growth (OD600) [4, 17]: 3.16 OD600
Growth (OD600) [4, 18]: 4.32 OD600
Growth (OD600) [4, 19]: 5.42 OD600
Growth (OD600) [4, 20]: 5.68 OD600
Growth (OD600) [4, 21]: 6.0 OD600
Growth (OD600) [4, 22]: 3.46 OD600
Acylase formation / induction (in words) [5]: only formed; also recorded: induced acylase formation
Optimum concentration in the culture medium for acylase formation [5]: 4 g/L
Spec. activity (U/mg) [5, 6]: 0.53 U/mg
Spec. activity (U/mg) [5, 7]: 0.50 U/mg
Spec. activity (U/mg) [5, 8]: 0.79 U/mg
Spec. activity (U/mg) [5, 9]: 0.63 U/mg
Spec. activity (U/mg) [5, 10]: 1.41 U/mg
Spec. activity (U/mg) [5, 11]: 0.96 U/mg
Spec. activity (U/mg) [5, 12]: 1.70 U/mg
Spec. activity (U/mg) [5, 13]: 0.67 U/mg
Spec. activity (U/mg) [5, 14]: 1.55 U/mg
Spec. activity (U/mg) [5, 15]: 1.08 U/mg
Spec. activity (U/mg) [5, 16]: 1.33 U/mg
Spec. activity (U/mg) [5, 17]: 1.36 U/mg
Spec. activity (U/mg) [5, 18]: 1.77 U/mg
Spec. activity (U/mg) [5, 19]: 1.84 U/mg
Spec. activity (U/mg) [5, 20]: 0.94 U/mg
Spec. activity (U/mg) [5, 21]: 2.26 U/mg
Spec. activity (U/mg) [5, 22]: 1.34 U/mg
